Results from patent US10350228B2, “Treatment of sickle cell disease and inflammatory conditions” (Seattle Genetics, Inc., priority 2012, dated 2019).
“Also recorded” adds a separate entry of the source. Where two headings read alike, the source gives them in different places.

Tests used:
[1] = tested on: NY1DD sickle cell mice; experiment: Hemoglobin-induced vascular stasis in dorsal skin fold chamber venules; format: in vivo; settings: 20 mM in drinking water 7 days
Protocol: NY1DD sickle cell mice were given plain water or 20 or 100 mM 2-fluorofucose in their drinking water ad libitum for 7 days. On day 4, dorsal skin fold chambers were implanted onto the mice (n=4). On day 7, flowing venules in the dorsal skin-fold chamber window were selected and mapped using intravital microscopy. Thereafter, the mice were infused via the tail vein with human stroma-free hemoglobin (0.32 μmols heme/kg), a known inducer of vascular stasis in SCD mice. At 1 and 4 hours after infusion the same venules were re-examined and the percentage of vessels that had become static (no flow) was recorded. A control group of NY1DD mice (n=3) with implanted dorsal skin-fold chambers was given water to drink and injected intraperitoneally with hemin (40 μmols/kg×3 days) a known inhibitor of vascular stasis

[2] = tested on: activated HUVEC cells; experiment: Adhesion of LS174T cells to TNFα-activated HUVEC cells; format: cell-based; settings: cells cultured with 100 μM for 10 days; adhesion at 4° C.
Protocol: For adhesion to activated HUVEC cells, non-tissue culture treated 96-well clear bottom black culture plates were coated with attachment factor (100 μL/well), 30 min at room temperature. Wells were aspirated and HUVECs were added to half of the wells (40,000 cells/200 μL cell culture medium) while 3% BSA/PBS was added to the remaining control wells (100 μL) and the plate was incubated overnight at 37° C., 5% CO2. The confluent HUVEC cells were then treated with TNFα (20 ng/mL in PBS) for 4 hr at 37° C. Meanwhile tumor cells were labeled with Calcein-AM as described. The wells of the 96-well plate were all aspirated and seeded with 2-fluorofucose-treated or untreated labeled LS174T cells (500000 cells/well) and the plate was kept at 4° C. for 2 hr. Plates were read at 480 nm excitation and 520 nm emission (total cell reading) and then washed with DPBS four times, followed by fluorescent analysis. (see FIG. 4; The numeral 1 refers to 2-fluorofucose).

[3] = tested on: blood neutrophils; experiment: Blood neutrophil counts in treated mice; format: in vivo, Balb/c mice; settings: 10 or 100 mM in drinking water, day 21
Protocol: (§1) Female Balb/c mice were given oral 2-fluorofucose in their drinking water (10 mM, 100 mM, n=3/group) or left untreated. Mice remained on the 2-fluorofucose-containing water through day 21 when blood was collected. Pre-dose bleeds were collected for baseline comparison. Total white cells/μL blood were determined by hemacytometer using Turk's solution (0.01% gentian violet in 3% acetic acid) to exclude red blood cells. RBCs were eliminated from the remainder of the blood by osmotic lysis for flow cytometric analysis. Cells were incubated with anti-Gr-1-FITC antibodies (BD Biosciences) to identify neutrophils, and a recombinant P-selectin-human Fc fusion protein (R&D Systems) or a recombinant E-selectin-human Fc fusion protein. Cells were washed and then incubated with a PE-labeled goat anti-human IgG-Fc secondary antibody (Jackson Immunoresearch) to detect bound P-selectin or E-selectin. Samples were collected on a FACSCalibur flow cytometer and analyzed using CellQuest software. The percentage of Gr-1+ cells was determined and absolute number of neutrophils was calculated using the total white cell number from the hemacytometer count. In addition, flow samples were gated for Gr-1+ cells to assess P-selectin or E-selectin binding to neutrophils by histogram analysis. The geometric mean of the P-selectin or E-selectin fluorescent signal was determined from the histogram. […]

[4] = tested on: NF-κB phospho-p65; experiment: Western blot of NF-κB phospho-p65 in liver nuclear extracts of sickle cell mice; format: in vivo, NY1DD sickle cell mice
Protocol: (§2) NY1DD sickle cell mice were given plain water or 20 or 100 mM 2-fluorofucose in their drinking water ad libitum for 7 days. The treatment and control group had four mice per treatment group. On day 7, the mice were sacrificed with CO2. An EDTA blood sample was collected from the heart and the liver was removed and frozen in liquid nitrogen. Total white blood cell counts and differentials were performed by manual counting using a hemocytometer and Wright-stained blood smears, respectively. Nuclear extracts were prepared from nuclei isolated from liver homogenates. Western blots of the nuclear extracts were immunostained with antibodies to NF-κB phospho-p65 a marker of NF-κB activation.

[5] = tested on: E-selectin; experiment: E-selectin binding to neutrophils from treated mice (flow cytometry); format: in vivo, Balb/c mice; settings: 10 or 100 mM in drinking water, day 21
Protocol: as §1

[6] = tested on: E-selectin; experiment: Adhesion of LS174T cells to immobilized E-selectin; format: cell-based; settings: cells cultured with 100 μM for 10 days; adhesion at 4° C.
Protocol: LS174T cells (ATCC) were cultured in MEM-Eagle with 10% FBS with or without 100 μM 2-fluorofucose for 10 days. For adhesion to purified E-selectin, non-tissue culture treated 96-well clear bottom black culture plates were coated with E-selectin-Fc chimera (5 μg/mL, PBS) and controls with 3% BSA/PBS, 2 hr at 37° C., then overnight at 4° C. Wells were washed two times with PBS and blocked with 3% BSA/PBS (2 hr, room temperature). LS174T cells were harvested and washed with PBS 2 times, labeled with 5 μM Calcein-AM in serum-free medium (15 min), and washed with DBPS two times. Cells in DPBS (100 μL) of were added to each well and the plate was kept at 4° C. for 2 hr. Plates were read at 480 nm excitation and 520 nm emission (total cell reading) and then washed with DPBS four times, followed by fluorescent analysis.

[7] = tested on: antibody core fucosylation; experiment: Inhibition of antibody core fucosylation by fucose analogs; format: cell-based
Source text: Methods of determining whether a fucose analog is capable of having an effect on antibody core fucosylation is provided in WO 2012/019165.

[8] = tested on: P-selectin; experiment: P-selectin binding to neutrophils from treated mice (flow cytometry); format: in vivo, Balb/c mice; settings: 10 or 100 mM in drinking water, day 21
Protocol: as §1

[9] = tested on: white blood cells; experiment: White blood cell counts in sickle cell mice; format: in vivo, NY1DD sickle cell mice; settings: 7 days
Protocol: as §2

[10] = Table 2, 50 μM analog, read-out: Inhibition at 50 μM
[11] = Table 1, 50 μM analog, read-out: Inhibition at 50 μM

C[C@H](O)[C@@H](O)[C@@H](O)[C@H](F)C=O [2-fluorofucose, 2-deoxy-2-fluorofucose]
percent static venules (vascular stasis) ([1]; 1 hour after hemoglobin infusion): partially inhibited stasis; also recorded: partially diminished | percent static venules (vascular stasis) ([1]; 4 hours after hemoglobin infusion): partially inhibited stasis; also recorded: partially diminished | adhesion of LS174T cells to HUVEC cells activated with TNFα [2]: decreased adhesion | blood neutrophil counts [3]: significantly increased | Nuclear NF-κB phospho-p65 in liver ([4]; 20 mM in drinking water, 7 days): partially diminished | Nuclear NF-κB phospho-p65 in liver ([4]; 100 mM in drinking water, 7 days): markedly decreased | E-selectin binding to neutrophils [5]: loss | adhesion of LS174T cells to immobilized E-selectin [6]: decreased adhesion; also recorded: diminished adhesion to selectins | inhibition at 50 µM [7, 10]: > 80% | inhibition at 1000 µM ([7]; Table 2, 1 mM analog): > 80% | P-selectin binding to neutrophils [8]: dimished and loss | White blood cells counts (mean+SD) ([9]; 20 mM in drinking water): 22.1+5.2 K/μL | White blood cells counts (mean+SD) ([9]; 100 mM in drinking water): 34.2+7.2 K/μL

C#CC(O)[C@@H](O)[C@@H](O)[C@H](O)C=O (stereo partly shown) [Alkynyl fucose, 5-ethynylarabinose]
inhibition at 50 µM [7, 11]: > 80%

C#CC1OC(OC(=O)C(C)(C)C)C(O)C(OC(=O)C(C)(C)C)C1O (stereo not shown) [Alkynyl fucose di(trimethylacetate), 5-ethynylarabinose 1,3-(trimethylacetate)]
inhibition at 50 µM ([7]; Table 1, 50 μM analog): >80%

CC(=O)O[C@H]([C@H](OC(C)=O)[C@H](CC#N)OC(C)=O)[C@@H](C=O)OC(C)=O [6-cyano fucose tetraacetate, 6-cyanofucose tetraacetate]
inhibition at 50 µM [7, 11]: 30% | inhibition at 1000 µM ([7]; Table 1, 1 mM analog): > 80%

C#C[C@@H]1OC(OC(=O)C(C)C)[C@@H](OC(=O)C(C)C)[C@H](OC(=O)C(C)C)[C@@H]1OC(=O)C(C)C (stereo partly shown) [Alkynyl fucose perisobutanoate]
inhibition at 50 µM ([7]; Table 1, 50 μM analog): >80% | Inhibition at 1 mM ([7]; Table 1, 1 mM analog): >80%

CC(=O)O[C@H]([C@H](OC(C)=O)[C@H](CBr)OC(C)=O)[C@@H](C=O)OC(C)=O [6-bromo-fucose tetraacetate, 6-bromofucose tetraacetate]
inhibition at 50 µM [7, 11]: 50% | inhibition at 1000 µM ([7]; Table 1, 1 mM analog): 80%

CC(=O)OC1OC(C#N)[C@@H](OC(C)=O)[C@@H](OC(C)=O)[C@@H]1OC(C)=O (stereo partly shown) [5-cyanoarabinopyranose tetraacetate]
inhibition at 50 µM [7, 11]: 20%

hemin [heme, reference compound]
Nuclear NF-κB phospho-p65 in liver ([4]; heme-treated mice): markedly decreased

C#C[C@H](OC(C)=O)[C@H]1OC(OC)[C@@H](OC(C)=O)[C@@H]1OC(C)=O (stereo partly shown) [1-methyl-2,3,4-triacetyl alkynyl fucose]
inhibition at 50 µM ([7]; Table 1, 50 μM analog): 68% | Inhibition at 1 mM ([7]; Table 1, 1 mM analog): >80%

C#CC1OC(OC(=O)c2cccnc2)C(OC(=O)c2cccnc2)C(OC(=O)c2cccnc2)C1OC(=O)c1cccnc1 (stereo not shown) [Alkynyl fucose pernicotinate]
inhibition at 50 µM ([7]; Table 1, 50 μM analog): >80% | Inhibition at 1 mM ([7]; Table 1, 1 mM analog): >80%

CC(=O)OC1CC(OC(C)=O)C(OC(C)=O)C(C)O1 (stereo not shown) [6-methyl-tetrahydro-2H-pyran-2,4,5-triyl triacetate]
inhibition at 50 µM [7, 10]: 0% | inhibition at 1000 µM ([7]; Table 2, 1 mM analog): 36%

C#CC(OC(=O)CCCCC)[C@@H](OC(=O)CCCCC)[C@@H](OC(=O)CCCCC)[C@@H](C=O)OC(=O)CCCCC (stereo partly shown) [Alkynyl fucose tetra-n-hexanoate, 5-ethynylarabinose tetrahexanoate]
inhibition at 50 µM [7, 11]: > 80% | inhibition at 1000 µM ([7]; Table 1, 1 mM analog): > 80%
